# Experimental data taken from the NIST ThermoML archive (doi:10.1016/j.tca.2006.04.022).
# ± gives the expanded uncertainty stated by the source.
# Conditions: Adiabatic calorimetry
smiles,measurement,value
CCOS(=O)(=O)[O-].CCn1cc[n+](C)c1 [1-ethyl-3-methylimidazolium ethyl sulfate],Glass transition temperature,-80.30 ± 0.05 °C
